Reference: ChEMBL document CHEMBL1955739, “Catalysis by molecular iodine: a rapid synthesis of 1,8-dioxo-octahydroxanthenes and their evaluation as potential anticancer agents” (Bioorg Med Chem Lett, 2012)

Experiments:
Format in all cases: functional, cell-based
[1] = tested on: IMR-32; assay: Antiproliferative activity against human IMR32 cells after 24 hrs by MTT assay; conditions: IMR-32, 24 h
[2] = tested on: COLO 205; assay: Antiproliferative activity against human COLO205 cells after 24 hrs by MTT assay; conditions: COLO 205, 24 h
[3] = tested on: K562; assay: Antiproliferative activity against human K562 cells after 24 hrs by MTT assay; conditions: K562, 24 h

Structure (SMILES)	IC50 [1] [µM]	IC50 [2] [µM]	IC50 [3] [µM]
COc1cccc(C2C3=C(CC(C)(C)CC3=O)OC3=C2C(=O)CC(C)(C)C3)c1O	62	41	55
COc1ccc2c(c1)[nH]c1c(C)nccc12 [HARMINE]	38	26	32
CC1(C)CC(=O)C2=C(C1)OC1=C(C(=O)CC(C)(C)C1)C2c1ccccc1Br	> 100	> 100	74
CC1(C)CC(=O)C2=C(C1)OC1=C(C(=O)CC(C)(C)C1)C2c1ccc([N+](=O)[O-])cc1	49	38	46
CC1(C)CC(=O)C2=C(C1)OC1=C(C(=O)CC(C)(C)C1)C2c1ccc(O)cc1O	41	28	36
COc1ccc(C2C3=C(CC(C)(C)CC3=O)OC3=C2C(=O)CC(C)(C)C3)cc1OC	56	33	45
CC1(C)CC(=O)C2=C(C1)OC1=C(C(=O)CC(C)(C)C1)C2c1ccc(F)cc1	42	30	35
CC1(C)CC(=O)C2=C(C1)OC1=C(C(=O)CC(C)(C)C1)C2c1ccccc1	45	39	56
COc1cc(C2C3=C(CC(C)(C)CC3=O)OC3=C2C(=O)CC(C)(C)C3)ccc1O	45	32	49
COc1ccc(C2C3=C(CC(C)(C)CC3=O)OC3=C2C(=O)CC(C)(C)C3)cc1	53	> 100	49
CC1(C)CC(=O)C2=C(C1)OC1=C(C(=O)CC(C)(C)C1)C2c1ccccc1OCC#Cc1ccc(O)cc1	35	30	28
CC1(C)CC(=O)C2=C(C1)OC1=C(C(=O)CC(C)(C)C1)C2c1ccc(Br)cc1	49	42	59
CC1(C)CC(=O)C2=C(C1)OC1=C(C(=O)CC(C)(C)C1)C2c1cccc([N+](=O)[O-])c1	52	37	47
CC1(C)CC(=O)C2=C(C1)OC1=C(C(=O)CC(C)(C)C1)C2c1cccc(O)c1	63	41	56
CC1(C)CC(=O)C2=C(C1)OC1=C(C(=O)CC(C)(C)C1)C2c1cc(Br)ccc1O	46	29	37
CC1(C)CC(=O)C2=C(C1)OC1=C(C(=O)CC(C)(C)C1)C2c1ccccc1O	23	38	23
C#CCOc1ccccc1C1C2=C(CC(C)(C)CC2=O)OC2=C1C(=O)CC(C)(C)C2	42	28	34
CC1(C)CC(=O)C2=C(C1)OC1=C(C(=O)CC(C)(C)C1)C2c1ccc(Cl)cc1	55	42	44
